Measured values: patent US8354522B2, “Immunostimulatory oligoribonucleotides” (Coley Pharmaceutical GmbH, priority 2005, dated 2013)
Like-named read-outs stand apart in the source and are kept apart here.

Tested on: Human PBMC
Assay: Cytokine production upon human PBMC stimulation (ORN complexed to DOTAP, 16 h, ELISA)
Assay type: cell-based
Design: key to IFN-alpha / TNF-alpha: +: cytokine production; −: no cytokine production
Conditions: for EC50 / IFN-alpha max activity / TNF-alpha max activity: ORN complexed to DOTAP, 16 h; for EC50: full titration 2 μM to 0.9 nM; for IFN-alpha max activity / TNF-alpha max activity: mean max activity at 0.6 μM, 3-6 blood donors; for IFN-alpha / TNF-alpha: human PBMC stimulated for 16 h, supernatant ELISA
Experimental: Human peripheral blood mononuclear cells (PBMCs) were isolated from healthy donors, plated, and stimulated in vitro with various test and control immunostimulatory agents for 16 hours. After 16 hours, the supernatants were collected and then analyzed by ELISA assay. N-U-R1-R2,-Containing Oligoribonucleotides were tested complexed to DOTAP and with full titration curves (7 concentrations), starting from 2 μM ORN complexed to 25 μg/ml DOTAP and with 1/3 dilution steps. Also included were certain negative controls, including medium alone and DOTAP (25 μg/ml culture well; “Liposomes”) alone. The control immunostimulatory agents included the imidazoquinoline R-848 (2 μM with 1/3 dilution steps and 7 concentrations) the reported ligand for TLR7, ORN having TLR8 motifs such as AU and AUU sequences (SEQ ID NO:13-SEQ ID NO:15) ORN having TLR7/8 motifs such as CU, GU and GUU sequences (SEQ ID NO:19-SEQ ID NO:23).
Human PBMC were stimulated with ORN complexed to DOTAP. After 16 hours supernatants were harvested and TNF-alpha and IFN-alpha levels were measured. Mean/Max activities at 0.6 μM of 3-6 blood donors and two individual experiments were determined. […] TLR8 and TLR7/8 ORN are divided by a red line.
Human PBMC were stimulated with ORN complexed to DOTAP. After 16 hours supernatants were harvested and IFN-alpha levels were measured. Mean/Max activities at 0.6 μM and EC50 of full titration curves (range: 2 μM to 0.9 nM) of 3-6 blood donors and two individual experiments were determined. […] Low EC50/high Max activity represents TLR7/8 ORN (FIG. 5a) whereas high EC50 and low Max activity represents TLR8 ORN (FIG. 5b).
The ORN sequences listed in Table 1 were tested for IFN-alpha and TNF-alpha production upon human PBMC stimulation. Human PBMC were stimulated for 16 h with the indicated ORN, and supernatants were harvested and cytokine production measured by ELISA. Table 2 summarizes the min/max activity and EC50 of ORN for IFN-alpha and TNF-alpha production.

[1] = human PBMC, read-out: IFN-alpha EC50
[2] = human PBMC, read-out: TNF-alpha EC50

Substance	EC50 [1] [nM]	EC50 [2] [nM]	IFN-alpha max activity (human PBMC) [pg/mL]	TNF-alpha max activity (human PBMC) [pg/mL]	IFN-alpha	TNF-alpha	IFN-alpha production upon PBMC stimulation (in words) (human PBMC)
C*C*G*A*G*C*C*G*C*A*U*A*A*C*C*C (CCGAGCCGCAUAACCC; listed as RNA, chemistry not fully specified) [SEQ ID NO: 41]	> 2000	897	97.97	10756			
U*G*U*G*U*G*U (UGUGUGU; phosphorothioate linkages, chemistry not fully specified) [SEQ ID NO: 31]					+	+	
U*U*A*G*G*C*A*C (UUAGGCAC; phosphorothioate linkages, chemistry not fully specified) [SEQ ID NO: 2]					−	+	
C*C*G*A*G*C*C*G*A*T*U*U*C*A*C*C [SEQ ID NO: 78] (CCGAGCCGANUUCACC; Oligoribonucleotide, chemistry of T and the '*' linkage is not given here, further chemistry not given here)	6	241	1609	20126			
C*C*G*A*G*C*C*G*A*U*U*U*T*A*C*C (CCGAGCCGAUUUNACC; Oligoribonucleotide, chemistry of T and the '*' linkage is not given here, further chemistry not given here) [SEQ ID NO: 72]	75	146	1896	38811			
C*C*G*A*G*C*C*G*A*A*G*C*U*C*C*C (CCGAGCCGAAGCUCCC; listed as RNA, chemistry not fully specified) [SEQ ID NO: 84]	> 2000	377	67.76	8545			
U*U*A*U*U*A*U (UUAUUAU; phosphorothioate linkages, chemistry not fully specified) [SEQ ID NO: 30]					−	+	
C*C*G*A*G*C*C*G*A*C*U*G*U*A*C*C (CCGAGCCGACUGUACC; listed as RNA, chemistry not fully specified) [SEQ ID NO: 61]	736	141	587.7	42180			
C*C*G*A*G*C*C*G*A*U*U*C*T*A*C*C (CCGAGCCGAUUCNACC; Oligoribonucleotide, chemistry of T and the '*' linkage is not given here, further chemistry not given here) [SEQ ID NO: 75]	1300	129	929.9	27576			
C*C*G*A*G*C*C*G*A*A*U*A*C*C*C*C (CCGAGCCGAAUACCCC; listed as RNA, chemistry not fully specified) [SEQ ID NO: 42]	≥ 1500	395	392.4	17418			
C*C*G*A*G*C*C*G*A*U*C*U*C*A*C*C (CCGAGCCGAUCUCACC; listed as RNA, chemistry not fully specified) [SEQ ID NO: 69]	619	313	1031	26915			
G*C*C*A*C*C*G*A*G*C*C*G*A*A*U*A*U*A*C*C (GCCACCGAGCCGAAUAUACC; listed as RNA, chemistry not fully specified) [SEQ ID NO: 11]					−	+	
C*C*G*A*G*C*C*A*U*A*U*A*U*A*U*C (CCGAGCCAUAUAUAUC; listed as RNA, chemistry not fully specified) [SEQ ID NO: 39]	≥ 1500	324	356.7	19253			
C*C*G*A*G*C*C*G*A*T*U*G*U*A*C*C (CCGAGCCGANUGUACC; Oligoribonucleotide, chemistry of T and the '*' linkage is not given here, further chemistry not given here) [SEQ ID NO: 62]	276	343	1945	37334			
C*C*G*A*G*C*C*G*C*A*U*U*A*C*C*C (CCGAGCCGCAUUACCC; listed as RNA, chemistry not fully specified) [SEQ ID NO: 48]	750	801	543.4	9988			
C*C*G*A*G*C*C*G*A*A*G*C*U*G*C*C (CCGAGCCGAAGCUGCC; listed as RNA, chemistry not fully specified) [SEQ ID NO: 88]	> 2000		73.19	11996			
C*C*G*A*G*C*C*G*C*A*U*C*C*C*C*C (CCGAGCCGCAUCCCCC; listed as RNA, chemistry not fully specified) [SEQ ID NO: 46]	> 2000	765	74.76	7096			
C*C*G*A*G*C*C*G*A*C*U*U*U*A*C*C (CCGAGCCGACUUUACC; listed as RNA, chemistry not fully specified) [SEQ ID NO: 57]	77	213	1499	33624			
C*C*G*A*G*C*C*G*A*A*U*G*U*A*C*C (CCGAGCCGAAUGUACC; listed as RNA, chemistry not fully specified) [SEQ ID NO: 63]	1840	309	177.3	34219			
C*C*G*A*G*C*C*G*C*U*A*U*U*C*C*C (CCGAGCCGCUAUUCCC; listed as RNA, chemistry not fully specified) [SEQ ID NO: 51]	582	125	2615	23325			
dN*dN*dN*dN*dN*N*A*U*A*U*N*N*dN*dN*dN*dN*dN*dN [SEQ ID NO: 7]					−	+	
C*U*C*U*C*U*C*U*C*U*C*U*C*U*C*U*C*U*C*U (CUCUCUCUCUCUCUCUCUCU; listed as RNA, chemistry not fully specified) [SEQ ID NO: 19]					+	+	
U*U*U*U*A*U*U*U*U*A*U*U*U*U*A*U*U*U*U*A (UUUUAUUUUAUUUUAUUUUA; chemistry not fully specified) [SEQ ID NO: 15]					+	+	induced IFN-alpha production
U*U*U*U*G*U*U*U*U*G*U*U*U*U*G*U*U*U*U*G (UUUUGUUUUGUUUUGUUUUG; listed as RNA, chemistry not fully specified) [SEQ ID NO: 23]					+	+	
G*U*C*G*U*C*G*U*C*G*U*C*G*U*C*G*U*C*G*U (GUCGUCGUCGUCGUCGUCGU; listed as RNA, chemistry not fully specified) [SEQ ID NO: 26]					+	+	
C*C*G*A*G*C*C*G*A*T*U*U*C*A*C*C [SEQ ID NO: 79] (CCGAGCCGANUUCACC; Oligoribonucleotide, chemistry of T and the '*' linkage is not given here, further chemistry not given here)	35	334	1152	17728			
G*U*A*G*U*A*G*U*A*G*U*A*G*U*A*G*U*A*G*U (GUAGUAGUAGUAGUAGUAGU; listed as RNA, chemistry not fully specified) [SEQ ID NO: 25]					+	+	
C*C*G*A*G*C*C*G*C*C*G*C*C*C*C*C (CCGAGCCGCCGCCCCC; listed as RNA, chemistry not fully specified) [SEQ ID NO: 35]	> 2000		70.6	2854			
C*C*G*A*G*C*C*G*A*A*U*U*C*A*C*C (CCGAGCCGAAUUCACC; listed as RNA, chemistry not fully specified) [SEQ ID NO: 80]	33	217	1225	28108			
